In the NIST ThermoML archive (doi:10.1021/acs.jced.7b00713):

Test: molar heat capacity at constant pressure
Conditions: Liquid, Flow calorimetry

F/C=C/C(F)(F)F [trans-1,3,3,3-tetrafluoropropene]
Conditions	molar heat capacity at constant pressure [J/K/mol]
313.46 K, 3000 kPa	160.8
313.47 K, 3980 kPa	158.97
313.47 K, 4490 kPa	157.95
313.48 K, 3490 kPa	159.89
313.48 K, 5010 kPa	157.04
313.49 K, 1040 kPa	165.36
313.49 K, 5490 kPa	156.58
313.49 K, 6010 kPa	155.67
313.49 K, 6990 kPa	153.61
313.49 K, 7470 kPa	152.93
313.5 K, 1510 kPa	164.22
313.5 K, 7990 kPa	152.36
313.51 K, 2010 kPa	163.08
313.51 K, 6510 kPa	154.53
313.51 K, 8500 kPa	151.79
313.52 K, 2480 kPa	162.4
313.52 K, 8990 kPa	150.99
313.52 K, 9510 kPa	150.65
313.53 K, 10000 kPa	149.96
323.28 K, 3520 kPa	163.76
323.28 K, 4030 kPa	162.4
323.29 K, 4530 kPa	161.25
323.29 K, 4990 kPa	160.46
323.29 K, 7490 kPa	155.89
323.29 K, 8010 kPa	154.75
323.29 K, 8520 kPa	154.18
323.29 K, 9040 kPa	153.04
323.31 K, 5490 kPa	159.66
323.31 K, 7030 kPa	156.92
323.32 K, 3010 kPa	164.68
323.32 K, 6010 kPa	158.63
323.33 K, 1510 kPa	168.9
323.33 K, 2010 kPa	167.41
323.33 K, 2500 kPa	165.93
323.33 K, 6480 kPa	157.83
323.34 K, 9490 kPa	152.7
323.36 K, 10010 kPa	151.79
333.08 K, 1550 kPa	178.13
333.08 K, 2060 kPa	175.62
333.11 K, 2510 kPa	173.69
333.11 K, 3500 kPa	170.26
333.13 K, 3030 kPa	172.09
333.13 K, 7490 kPa	160.8
333.14 K, 8040 kPa	159.32
333.15 K, 4000 kPa	169.01
333.15 K, 6520 kPa	162.4
333.15 K, 7020 kPa	161.37
333.16 K, 6010 kPa	163.54
333.16 K, 8500 kPa	158.75
333.18 K, 4980 kPa	166.27
333.18 K, 5500 kPa	164.56
333.19 K, 4500 kPa	167.76
333.19 K, 9020 kPa	158.06
333.2 K, 10080 kPa	155.89
333.21 K, 9510 kPa	157.38
343.53 K, 2040 kPa	185.77
343.57 K, 2550 kPa	183.04
343.57 K, 3000 kPa	180.3
343.59 K, 3540 kPa	178.36
343.6 K, 4040 kPa	175.74
343.61 K, 4540 kPa	173.23
343.62 K, 5040 kPa	171.75
343.62 K, 5510 kPa	169.69
343.62 K, 10070 kPa	157.61
343.63 K, 9080 kPa	160
343.63 K, 9530 kPa	159.09
343.64 K, 6050 kPa	168.44
343.64 K, 6590 kPa	166.61
343.64 K, 7070 kPa	165.25
343.64 K, 7510 kPa	163.88
343.64 K, 8090 kPa	162.17
343.65 K, 8480 kPa	160.91
353.55 K, 2550 kPa	196.49
353.55 K, 3510 kPa	188.4
353.58 K, 3040 kPa	192.05
353.61 K, 5010 kPa	178.36
353.61 K, 5510 kPa	176.54
353.62 K, 6040 kPa	175.17
353.64 K, 4520 kPa	181.44
353.64 K, 6530 kPa	173.69
353.64 K, 7050 kPa	172.54
353.65 K, 7500 kPa	171.63
353.65 K, 7970 kPa	170.72
353.66 K, 4050 kPa	184.52
353.67 K, 8480 kPa	170.04
353.68 K, 9030 kPa	168.67
353.68 K, 9510 kPa	168.21
353.68 K, 10090 kPa	166.96
363.56 K, 3500 kPa	207.67
363.56 K, 4000 kPa	200.03
363.57 K, 3000 kPa	219.53
363.61 K, 4510 kPa	194.78
363.61 K, 5520 kPa	186.46
363.62 K, 4990 kPa	190.34
363.63 K, 6020 kPa	182.81
363.64 K, 6520 kPa	180.19
363.64 K, 6990 kPa	177.33
363.64 K, 7530 kPa	175.05
363.64 K, 8010 kPa	173.12
363.65 K, 8530 kPa	171.4
363.65 K, 9050 kPa	170.15
363.66 K, 9450 kPa	169.01
363.66 K, 9990 kPa	167.76
373.35 K, 3540 kPa	259.44
373.42 K, 4030 kPa	231.73
373.42 K, 4510 kPa	216.91
373.43 K, 5010 kPa	206.42
373.44 K, 5540 kPa	199.23
373.47 K, 6020 kPa	194.1
373.48 K, 7010 kPa	185.66
373.49 K, 6530 kPa	189.54
373.49 K, 7500 kPa	183.04
373.5 K, 8030 kPa	179.62
373.51 K, 8510 kPa	177.45
373.56 K, 9050 kPa	175.4
373.57 K, 9430 kPa	174.48
373.59 K, 9990 kPa	172.66
391.65 K, 4520 kPa	525.5
392.2 K, 5020 kPa	310.99
392.38 K, 5470 kPa	257.73
392.46 K, 6010 kPa	226.37
392.52 K, 6540 kPa	210.06
392.57 K, 7060 kPa	200.6
392.6 K, 7560 kPa	194.55
392.63 K, 8030 kPa	191.02
392.67 K, 8510 kPa	189.88
392.72 K, 9070 kPa	188.05
392.75 K, 10000 kPa	187.03
392.77 K, 9520 kPa	188.51
392.77 K, 10010 kPa	187.48
